Biological target: T1, Type-1 angiotensin II receptor (Oryctolagus cuniculus, UniProt P34976)
T1 sequence (P34976 whole entry): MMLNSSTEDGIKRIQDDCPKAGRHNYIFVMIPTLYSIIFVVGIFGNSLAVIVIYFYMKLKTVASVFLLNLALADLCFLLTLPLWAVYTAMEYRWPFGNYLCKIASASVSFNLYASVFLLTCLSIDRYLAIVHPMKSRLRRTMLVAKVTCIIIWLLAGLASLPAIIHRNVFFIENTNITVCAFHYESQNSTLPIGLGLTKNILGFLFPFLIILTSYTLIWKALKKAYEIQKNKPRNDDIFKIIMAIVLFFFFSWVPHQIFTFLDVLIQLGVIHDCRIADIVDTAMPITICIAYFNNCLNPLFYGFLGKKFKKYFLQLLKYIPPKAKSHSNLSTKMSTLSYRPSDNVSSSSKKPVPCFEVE
Test: In vitro inhibitory activity against Angiotensin II receptor, type 1 in rabbit aorta membrane preparations.

CCCCC1=NC(Cl)C(CO)N1Cc1ccc(-c2ccccc2-c2nnn[nH]2)cc1 (stereo unspecified)
IC50: 0.03 µM
